Measured values from patent US20150073154A1, “Discrete PEG Based Dyes” (EquIP, LLC, priority 2013, published 2015).
Several values for one entry are separate records, joined by “and”; a condition that tells them apart may be missing. Equal entries are not always repeated. Where two headings read alike, the source gives them in different places. One block for each compound: values may come before it.

Experiments:
[1] = Conjugation of ICG reagents with IgG: maximal ICG incorporation without losing the protein; assay type: physicochemical; settings: reaction with MAG in 10% DMAC
From the text: The maximal number of ICGs using this reagent that can be incorporated into an IgG without losing the protein is 4-5 ICG/IgG (FIG. 18). A similar number of ICGs from ICG-NHS, the reagent without dPEG, can be substituted into IgG (FIG. 19).
c. Conjugation of ICG-dPEG12-NHS with MAG (Mouse Anti-Goat IgG Antibody)
MAG reacted with different concentrations of ICG-dPEG12-NHS in 10% DMAC
Product purified over two G50 spin columns in PBS
[IgG] and ICG/IgG molar ratios determined from A (770 nm) and A (280) nm
Lose most of protein when [ICG-dPEG12-NHS] in the reaction is ≧0.2 mM
Highest incorporation: ICG/IgG˜5

[2] = molecular target: Human Serum Albumin (HSA) (Homo sapiens, UniProt P02768); test: Fluorescence increase on addition to 4% HSA solution (HSA complex formation); assay type: binding
Human Serum Albumin (HSA), sequence (P02768 25-609): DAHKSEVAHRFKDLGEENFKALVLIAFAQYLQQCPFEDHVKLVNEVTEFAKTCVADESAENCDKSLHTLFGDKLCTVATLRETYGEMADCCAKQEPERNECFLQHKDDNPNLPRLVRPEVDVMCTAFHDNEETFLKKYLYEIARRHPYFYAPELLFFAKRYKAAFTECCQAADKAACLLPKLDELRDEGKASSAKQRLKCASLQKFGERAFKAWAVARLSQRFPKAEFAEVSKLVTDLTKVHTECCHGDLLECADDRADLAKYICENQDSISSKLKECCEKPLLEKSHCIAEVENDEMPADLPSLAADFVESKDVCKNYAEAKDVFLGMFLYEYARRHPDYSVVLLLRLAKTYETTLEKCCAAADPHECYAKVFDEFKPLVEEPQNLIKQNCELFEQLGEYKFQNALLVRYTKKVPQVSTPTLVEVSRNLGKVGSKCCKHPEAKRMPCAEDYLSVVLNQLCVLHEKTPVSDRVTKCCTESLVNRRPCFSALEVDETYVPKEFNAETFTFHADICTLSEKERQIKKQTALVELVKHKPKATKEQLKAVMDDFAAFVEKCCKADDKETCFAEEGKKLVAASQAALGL
Description: ICG is a hydrophobic molecule that forms a tight complex with Human Serum Albumin (HSA). The fluorescence of ICG increased ˜10 fold, as expected, when it was added to a 4% HSA solution. When ICG is conjugated to a protein, it loses its ability to form tight HAS complexes, as confirmed in our experiments where the fluorescence of ICG-IgG (no dPEG) increased by only a factor of ˜2 when added to 4% HSA. We hypothesized that ICG might still be able to bind to HSA when it was bound to IgG through a dPEG12 linker.

[3] = Solubility of ICG-NHS (no dPEG); assay type: physicochemical; settings: 10% DMAC (our work)
From the text: Soluble in 10% DMSO (lit) or DMAC (our work)

[4] = 10% DMSO (lit); cited from earlier work
[5] = Behaviour of unreacted reagent on spin columns in PBS (aggregation); assay type: physicochemical; settings: no MAG control
From the text: Reacted with MAG but couldn't separate unreacted reagent on spin columns in PBS

- maximal number of ICGs that can be incorporated into an IgG without losing the protein / highest incorporation [1]: 4-5 ICG/IgG and ~5 ICG/IgG
Compound: dPEG12-NHS ester)-1,1-dimethyl-benzoindoliden-hepta-1,3,5-trienyl-(1,1-dimethyl-benzoindolium butane sulfonate) [ICG-dPEG12-NHS]

- increase of fluorescence when added to 4% HSA [2]: ~10 fold
Compound: CC1(C)C(/C=C/C=C/C=C/C=C2\N(CCCCS(=O)(=O)[O-])c3ccc4ccccc4c3C2(C)C)=[N+](CCCCS(=O)(=O)[O-])c2ccc3ccccc3c21.[Na+] [ICG]

- solubility [3]: Soluble
- aggregation of unreacted reagent [5]: apparently forms aggregates
Compound: CC1(C)C(/C=C/C=C/C=C/C=C2\N(CCCCS(=O)(=O)[O-])c3ccc4ccccc4c3C2(C)C)=[N+](CCCCCC(=O)ON2C(=O)CCC2=O)c2ccc3ccccc3c21 [ICG-NHS]
- solubility [4]: Soluble
